Source: patent US8173648B2 (priority 2008, dated 2012)
Read-outs that look alike come from different tables or passages of the source.

How the values were obtained:
[1] = molecular target: T1, γ-secretase (Homo sapiens, UniProt P49768); assay: Cell-based γ-secretase assay (luciferase reporter) in T-20 cell line
T1 construct: measure the activity of γ-secretase in T-20 cell line; endogenous in cells; host or cells: T-20 (T-REx293/HEK293 stably transfected with C99-GV/TO and Gal4-Luc)
Experimental: In this example, a quantitative cell-based assay described in reference (2) and (3) was employed to measure the activity of γ-secretase in T-20 cell line.
Cell lysis and the addition of reagents for luciferase assay were completed simultaneously using the Steady-Glo luciferase assay system (Promega) as described in the manufacturer's instructions. Luciferase signals were determined by a VictorLight microplate luminometer (PerkinElmer).
A quantitative cell-based γ-secretase assay in T-20 cell line described in reference (2) was employed to measure the activity of γ-secretase. In this example, said assay and cell line thereof was used to measure effect of 1,2,3,4-tetrahydroisoquinoline derivatives on the activity of γ-secretase.
T-20 cells were routinely maintained in DMEM supplemented with 10% FBS, 200 μg/ml of hygromycin, 5 μg/ml of blasticidin, and 250 μg/ml of zeocin (DMEM-HZB). The stably transfected T-20 cells were detached from culture dishes by trypsinization, washed with PBS, and resuspended in DMEM-HZB, followed by plating onto 96-well microplates (2×10^4 cells/50 μl/well) and incubating at 37° C. for 24 hours. Preliminarily, compounds diluted in DMEM-HZB were added to a final concentration of 10 μM in the presence of tetracycline (1 μg/ml). Treatments were terminated after incubation at 37° C. for 24 hours by adding directly an equivalent volume of the Steady-Glo luciferase assay reagent (Promega), and measurements of luciferase signals from each well were performed immediately with the VictorLight microplate luminometer) (PerkinElmer). Triplicates of each compound treatment were assayed. Luciferase signal from the stable line without tetracycline induction and compound treatment was referred to as one-fold of activation. Parallel testing with a cell line constitutively expressing only the luciferase reporter gene (e.g., under control of a CMV promoter) was performed as a control.
Briefly, T-20 cell line was induced by tetracycline to express C99-GV protein fragment on cell membrane.

[2] = test system: ERK1/2; assay: Assay for extracellular signal-regulated kinase (ERK) activity (Western blot p-ERK1/2 / ERK1/2); format: cell-based, Human; conditions: for Activation of ERK1/2 (p-ERK/ERK, (%)): 10 μM, T-20 cells, positive control = 100, mean ± SD of three experiments
Experimental: Cell line used in this example were same as those described in example 2.
The activation of the ERKs was measured by using anti-phospho-ERK1/2 and anti-ERK1/2 antibodies (Cell Signaling Technology). In brief, T-20 cells were grown in six-well plates at 5×10^5 cells/well and incubated with culture medium at 37° C. for 18 hours, followed by an additional incubation with culture medium containing 1 μg/ml of tetracycline at 37° C. for 18 hours. Before the experiments, we replaced the medium with DMEM containing 0.5% FBS and treated it with the tested compounds (10 μM each). After treatment, reactions were stopped by placing cells on ice and aspirating off the medium. Cells were harvested and lysed in 50 mM Tris-HCl (pH 8.0), 150 mM NaCl, 5 mM EDTA, 1 mM sodium orthovanadate, 1% Triton X-100, and protease- and phosphatase-inhibitor cocktails. Protein concentration was determined by the BCA assay (Pierce). Each cell lysate, which contained 50 μg proteins, was separated on 12% SDS-polyacrylamide electrophoresis gels, immunoblotted, and identified using anti-phospho-ERK1/2 or anti-ERK1/2 antibody. In this example, T-20 cell line treated with medium containing 1% DMSO and 1 μg/ml of tetracycline was used as positive control group; T-20 cell line treated with medium containing various compounds (10 μM), 1% DMSO and 1 μg/ml of tetracycline were used as test groups for different compounds.

[3] = test system: soluble amyloid precursor protein α (sAPPα); assay: Effect on secretion of sAPPα in γ-30 cells (Western blot, 6E10 antibody); format: cell-based, Chinese hamster; conditions: 10 μM; for protein content of sAPPα detected by Western blot: FIG. 4A
Experimental: It is known that monoamine oxidase B (MAO-B) inhibitor can activate directly or indirectly ERK-related pathway, so as to regulate amyloid precursor protein (APP) proteolytic process, which lead to modulate indirectly the secretion of soluble amyloid precursor protein α (sAPPα), and inhibit indirectly the production of insoluble β amyloid-peptides (Aβ). […] Thus, in this example, assay was carried out in γ-30 cells to examine the effect of 1,2,3,4-tetrahydroisoquinoline derivatives (12a, c and d) on the secretion of sAPPα.
As described in reference (3) and (6), briefly described below. PS70 Chinese hamster ovary cell (CHO cell) was used to perform a transfection to obtain γ-30 stably transfected cell line, γ-30 stably transfected cell line was used to express then full length amyloid precursor protein (APP) and human PS1, Aph-1α2, and Pen-2 proteins (Human PS, Aph-1α2, and Pen-2). This cell line could be used as the ideal model cell for detecting α-secretase degradation of amyloid precursor protein (APP).
Each group of corresponding cell lysate in example 5 was prepared to identical protein content. Proteins with different molecular weight were separated by means of electrophoresis on SDS-PAGE and Western Blot assay was carried using anti-Aβ1-17 monoclonal antibody (6E10) (purchased from US Chemicom Co.). In this example, γ-30 cell line treated with medium containing 1% DMSO was used as negative control group, γ-30 cell lines treated with medium containing different compounds (10 μM), 1% DMSO and 1 μg/ml of tetracycline were used as test group for different compounds, respectively.
γ-30 stably transfected cell line expresses full length amyloid precursor protein (APP) and human PS1, Aph-1α2, and Pen-2 proteins. When α-secretase cleavages amyloid precursor protein (APP), soluble amyloid precursor protein α (sAPPα) is formed, which can be used to detect whether a compound has an effect on the secretion of soluble amyloid precursor protein α (sAPPα). To this end, Western blot assay using Aβ1-17 monoclonal antibody (6E10) was carried out to detect soluble amyloid precursor protein α (sAPPα). […] Thereafter, results from Western blot assay were subjected to quantitatively statistical analysis.

[4] = molecular target: T2, monoamine oxidase B (MAO-B) (Rattus norvegicus, UniProt P19643); assay: biochemical
T2 construct: from tissue; host or cells: brain cortex of male F344/N rats (supernatant of homogenate)
T2 sequence (P19643 1-520): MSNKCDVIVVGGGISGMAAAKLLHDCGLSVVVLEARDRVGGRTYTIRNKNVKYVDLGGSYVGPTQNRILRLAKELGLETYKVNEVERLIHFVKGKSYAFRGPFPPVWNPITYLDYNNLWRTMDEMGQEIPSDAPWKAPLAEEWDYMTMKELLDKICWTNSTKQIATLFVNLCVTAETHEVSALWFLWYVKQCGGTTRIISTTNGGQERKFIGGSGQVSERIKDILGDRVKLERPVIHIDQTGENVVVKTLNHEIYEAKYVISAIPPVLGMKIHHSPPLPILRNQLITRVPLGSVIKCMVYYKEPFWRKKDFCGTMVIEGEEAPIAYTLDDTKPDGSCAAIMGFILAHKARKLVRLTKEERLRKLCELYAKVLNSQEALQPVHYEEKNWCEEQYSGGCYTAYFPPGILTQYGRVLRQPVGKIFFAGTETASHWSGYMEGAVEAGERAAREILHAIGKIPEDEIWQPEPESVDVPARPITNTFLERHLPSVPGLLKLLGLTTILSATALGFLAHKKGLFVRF
Experimental: At first, monoamine oxidase B (MAO-B) was purified from rat brain cortex, and then activity inhibition assay of these derivatives against monoamine oxidase B(MAO-B) was carried out.
MAO-B enzyme preparations were prepared from brain cortex of decapitalized male F344/N rats. The brain cortex in PBS solution was frozen with liquid nitrogen and kept at −80° C. for 3 days. The homogenate was then obtained by centrifugation (14,000 rpm, 10 min) of the frontal cortex in 0.1 M potassium phosphate buffer (pH 7.4) at 4° C. and the supernatant was taken as the enzyme source for MAO. A standard solution containing 0.1 M potassium phosphate buffer and albumin were prepared in different concentration grades. Ten microliters of each solution was taken and added with 200 μl of BCA kit. Following the similar method, the above supernatant from brain cortex was diluted and 10 μl of stock solution taken and added with […] of BCA kit. Both standard and sample solutions were incubated at 37° C. for 30 min. 200 μl of the solutions was added to each well of a 96-well microplate and the protein contents were measured with a fluorescence microplate reader by determining optical density at 595 nm.
To the supernatant (protein content, 80 μg/ml) in 96-well microplate was added with 1 U/ml HRP (Horseradish Peroxidase), […] benzylamine, and 50 μM Amplex red in 0.1 M potassium phosphate buffer followed by the tested sample, which was prepared in 200 μg/ml in DMSO as stock solution. These mixtures were incubated at room temperature for 60 min and optical density was determined by a fluorometric reader. Its IC50 was calculated then with the following formula. IC50: median inhibitory concentration, which is defined in this example as the concentration of a inhibitor that is needed for inhibiting 50% activity of an enzyme. Inhibition (%)=1−[(OD595 of sample/protein−[…] of sample)/OD595 of blank]×100% • OD595: Optical density at 595 nm (wavelength) • protein: protein content of control 3. Statistical Analysis

[5] = T20, read-out: inhibition of the activity of γ-secretase compared with positive control group

For `C#CCN[C@@H]1CCc2ccccc21` [Rasagiline, rasagiline, reference compound], the inhibition at 10 µM ([1]; T20, 10 μM, T-20 cells, 24 hours, tetracycline 1 μg/ml, FIG. 2, read-out: inhibition of the activity of γ-secretase compared with positive control group) was 6 to 15% and the “Activation of ERK1/2 (p-ERK/ERK, (%))” value [2] was 131 ± 14%.
With `CCN(C)C(=O)Oc1ccc2c(c1)CN(CC1CC1)CC2` [Compound 12a, 7-(N-Methyl-N-ethylcarbamoyloxy)-N-cyclopropylmethyl-1,2,3,4-tetrahydroisoquinoline] the inhibition at 10 µM [1, 5] was 35 to 72%, the “protein content of sAPPα detected by Western blot” value (from here on “protein content of sAPPα detected”) [3] was “higher than that of negative control group” and the “relative sAPPα secretion (quantified Western blot)” value (from here on “relative sAPPα secretion”) ([3]; FIG. 4B) was “could promote the secretion”. For the same molecule, the IC50 [4] was 12.8 ± 2 µM and the “Activation of ERK1/2 (p-ERK/ERK, (%))” value [2] was 131 ± 10%.
`C#CCN1CCc2ccc(OC(=O)N3CCCC3)cc2C1` [Compound 11b, 7-(1-Pyrrolidinecarbamoyloxy)-N-propargyl-1,2,3,4-tetrahydroisoquinoline] gave an IC50 [4] of 13.9 ± 0.5 µM.
Molecule `C#CCN1CCc2ccc(OC(=O)N3CCCCC3)cc2C1` [Compound 11c, 7-(1-Piperidinecarbamoyloxy)-N-propargyl-1,2,3,4-tetrahydroisoquinoline] has an IC50 [4] of 15.7 ± 2.2 µM.
With `C#CCN1CCc2ccc(OC(=O)N(C)CC)cc2C1` [Compound 11a, 7-(N-Methyl-N-ethylcarbamoyloxy)-N-propargyl-1,2,3,4-tetrahydroisoquinoline] the IC50 [4] was 21.5 ± 1 µM.
With `O=C(Oc1ccc2c(c1)CN(CC1CC1)CC2)N1CCOCC1` [Compound 12d, 7-(1-Morpholinecarbamoyloxy)-N-cyclopropylmethyl-1,2,3,4-tetrahydroisoquinoline] the inhibition at 10 µM [1, 5] was 35 to 72%, the “protein content of sAPPα detected” value [3] was “higher than that of negative control group” and the “relative sAPPα secretion” value ([3]; FIG. 4B) was “could promote the secretion”. The IC50 [4] was 18.5 ± 0.8 µM and the “Activation of ERK1/2 (p-ERK/ERK, (%))” value [2] was 138 ± 39%.
`O=C(Oc1ccc2c(c1)CN(CC1CC1)CC2)N1CCCCC1` [Compound 12c, 7-(1-Piperidinecarbamoyloxy)-N-cyclopropylmethyl-1,2,3,4-tetrahydroisoquinoline] was tested, and the inhibition at 10 µM [1, 5] was 35 to 72%, the “protein content of sAPPα detected” value [3] was “higher than that of negative control group” and the “promotion of sAPPα secretion compared with rasagiline test group” value ([3]; FIG. 4B) was “better promotion effect than rasagiline test group”. For the same molecule, the “relative sAPPα secretion” value ([3]; FIG. 4B) was “could promote the secretion”, the IC50 [4] was 11.6 ± 0.7 µM and the “ability to activate ERK relative to rasagiline test group” value ([2]; 10 μM each) was 1.2 times. For the same molecule, the “Activation of ERK1/2 (p-ERK/ERK, (%))” value [2] was 155 ± 28 %.
`C#CCN1CCc2ccc(OC(=O)N3CCOCC3)cc2C1` [Compound 11d, 7-(1-Morpholinecarbamoyloxy)-N-propargyl-1,2,3,4-tetrahydroisoquinoline] was tested, and the IC50 [4] was 18.7 ± 1.6 µM.
`O=C(Oc1ccc2c(c1)CN(CC1CC1)CC2)N1CCCC1` [Compound 12b, 7-(1-Pyrrolidinecarbamoyloxy)-N-cyclopropylmethyl-1,2,3,4-tetrahydroisoquinoline] was tested, and the IC50 [4] was 14.9 ± 1.1 µM.
